Key:
brine shrimp = conditions: result in words; cited from earlier work
Pseudomonas pseudomaliae = conditions: result in words; cited from earlier work
3 cancer cell lines = assay: cell proliferation assay against cancer cell lines; assay type: cell-based; conditions: result in words
HIV-1 BaL = assay: anti-HIV bioassay: HIV-1 p24 production in infected PHA-activated PBMCs (ELISA, day 7); assay type: cell-based; conditions: PBMCs infected with HIV-1 BaL; result in words
Method: Stocks of crude drug made from G. officinale L. were prepared in Dimethyl sulfoxide (DMSO) in a stock solution of 10 mg/ml. Dilutions from the stock were made and the final concentration of DMSO in the cultures was always <0.1% to avoid cell toxicity. Peripheral blood mononuclear cells (PBMCs) were separated from buffy coats of HIV-1 seronegative donors (New York Blood Center, NY) by density centrifugation over Ficoll-Hypaque (Sigma). Briefly, the buffy coat suspension was diluted 1:2 with phosphate-buffered saline solution (PBS). Then, 35 ml were layered onto 15 ml of Ficoll® Paque PLUS (GE Healthcare), a ready to use sterile medium for isolation of lymphocytes and were centrifuged by standard ficoll-paque gradient centrifugation according to manufacturer's protocol (GE Healthcare) for 25 min at 400×g. The white interphase containing the PBMCs was collected and washed three times with PBS. […] On day 7, HIV-1 p24 protein production in the culture supernatant was measured using a commercial ELISA kit (Coulter, Hialeah, Fla.) and cell viability using a colorimetric MTT kit (Roche). […] The quantity of formazan produced (absorbance at 490 nm) is directly proportional to the number of living cells. […] MTT conversion to formazan by mitochondrial dehydrogenase was assayed by optical density at 490 nm measured in an ELISA plate reader. […]

| Compound | brine shrimp toxicity (brine shrimp) | antibacterial activity against Pseudomonas pseudomaliae (Pseudomonas pseudomaliae) | activity against 3 cancer cell lines (3 cancer cell lines) | Anti-HIV-1 activity (HIV-1 BaL) |
| --- | --- | --- | --- | --- |
| guaianin N | toxicity | antibacterial activity | – | – |
| CC1(C)CC[C@]2(C(=O)O)CC[C@]3(C)C(=CC[C@@H]4[C@@]5(C)CC[C@H](O[C@@H]6OC[C@@H](O)[C@H](OC7O[C@H](CO)[C@H](O)[C@H](O)[C@H]7O)[C@H]6O)C(C)(C)[C@@H]5CC[C@]43C)[C@@H]2C1 (stereo partly shown) [HL-038] | – | – | moderate activity | moderate activity |
